{"source": "paper PMC7866395", "about": "“A Pipeline towards the Biochemical Characterization of the Arabidopsis GT14 Family” (International Journal of Molecular Sciences, 2021)", "type_in_all_cases": "biochemical", "key": {"[1]": {"molecular_target": "T1, AT4G27480 (248) (Arabidopsis thaliana, UniProt F4JIW2)", "T1 construct": "full-length CDS, C-terminal YFP and HA tags (pEarleyGate 101), transient expression in Nicotiana benthamiana, Triton X-100 treated microsomal membranes, about 75 kDa fusion", "T1 sequence (F4JIW2 1-421)": "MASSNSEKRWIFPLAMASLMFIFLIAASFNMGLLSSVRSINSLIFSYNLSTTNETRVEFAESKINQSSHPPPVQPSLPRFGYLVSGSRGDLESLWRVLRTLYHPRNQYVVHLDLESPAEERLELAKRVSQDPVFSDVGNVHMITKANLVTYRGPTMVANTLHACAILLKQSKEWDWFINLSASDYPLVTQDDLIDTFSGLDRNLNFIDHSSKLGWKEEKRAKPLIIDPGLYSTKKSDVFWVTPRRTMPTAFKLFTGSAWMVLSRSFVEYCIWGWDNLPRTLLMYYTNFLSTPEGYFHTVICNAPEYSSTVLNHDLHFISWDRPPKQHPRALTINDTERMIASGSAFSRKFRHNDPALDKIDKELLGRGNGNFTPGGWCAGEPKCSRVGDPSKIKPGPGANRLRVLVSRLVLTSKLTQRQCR", "test": "glucuronosyltransferase assay, RP-HPLC with fluorescence detection", "settings": "donor 0.4 mM; acceptor 5 uM β-Gal-NBD, β-1,6-Gal4-AA or β-1,3-Gal5-AA; 25 °C, 2 h; microsomes"}, "[2]": {"molecular_target": "T2, AT5G15050 (249, AtGlcAT14B) (Arabidopsis thaliana, UniProt Q9LFQ0)", "T2 construct": "gene GLCAT14B; full-length CDS, C-terminal YFP and HA tags (pEarleyGate 101), transient expression in Nicotiana benthamiana, Triton X-100 treated microsomal membranes, about 75 kDa fusion", "T2 sequence (Q9LFQ0 1-434)": "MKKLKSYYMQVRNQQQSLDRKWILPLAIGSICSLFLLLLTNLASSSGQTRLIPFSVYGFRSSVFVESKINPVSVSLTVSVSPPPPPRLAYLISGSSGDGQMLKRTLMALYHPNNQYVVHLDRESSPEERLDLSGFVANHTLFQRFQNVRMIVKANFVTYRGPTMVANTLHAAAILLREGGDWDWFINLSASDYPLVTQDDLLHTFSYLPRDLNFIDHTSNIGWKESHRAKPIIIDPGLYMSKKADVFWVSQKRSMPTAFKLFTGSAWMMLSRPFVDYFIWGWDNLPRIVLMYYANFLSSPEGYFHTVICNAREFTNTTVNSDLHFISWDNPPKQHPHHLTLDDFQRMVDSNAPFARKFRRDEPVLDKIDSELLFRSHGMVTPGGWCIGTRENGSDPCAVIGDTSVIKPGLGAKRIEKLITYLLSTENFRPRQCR", "test": "glucuronosyltransferase assay, RP-HPLC with fluorescence detection", "settings": "donor 0.4 mM; acceptor 5 uM β-Gal-NBD, β-1,6-Gal4-AA or β-1,3-Gal5-AA; 25 °C, 2 h; microsomes"}, "[3]": {"molecular_target": "T3, AT3G15350 (245, AtGlcAT14E) (Arabidopsis thaliana, UniProt Q9LE60)", "T3 construct": "full-length CDS, C-terminal YFP and HA tags (pEarleyGate 101), transient expression in Nicotiana benthamiana, Triton X-100 treated microsomal membranes, about 75 kDa fusion", "T3 sequence (Q9LE60 1-424)": "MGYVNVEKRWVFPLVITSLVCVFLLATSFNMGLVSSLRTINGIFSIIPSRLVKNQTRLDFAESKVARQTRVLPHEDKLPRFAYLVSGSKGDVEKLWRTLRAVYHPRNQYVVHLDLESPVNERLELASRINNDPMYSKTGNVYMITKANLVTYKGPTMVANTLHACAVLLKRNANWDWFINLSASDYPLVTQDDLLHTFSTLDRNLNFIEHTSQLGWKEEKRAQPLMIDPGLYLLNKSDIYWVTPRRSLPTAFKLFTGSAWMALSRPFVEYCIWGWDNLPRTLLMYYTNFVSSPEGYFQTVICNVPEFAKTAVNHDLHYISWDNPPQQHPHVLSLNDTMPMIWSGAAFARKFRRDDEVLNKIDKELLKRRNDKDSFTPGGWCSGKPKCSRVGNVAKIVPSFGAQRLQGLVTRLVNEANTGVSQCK", "test": "glucuronosyltransferase assay, RP-HPLC fluorescence and LC-ESI-MS of products", "settings": "donor 0.4 mM; acceptor 5 uM β-1,3-Gal5-AA; 25 °C, 2 h; microsomes"}}}
{"compound": "O=C(O)[C@H]1O[C@H](OP(=O)(O)OP(=O)(O)OC[C@H]2O[C@@H](n3ccc(=O)[nH]c3=O)[C@H](O)[C@@H]2O)[C@H](O)[C@@H](O)[C@@H]1O", "note": "[UDP-GlcA]", "values": [{"measurement": "glucuronosyltransferase assay, RP-HPLC with fluorescence detection", "setting": "[1]", "result": "AT4G27480 show the GlcAT activity using the three different acceptors"}, {"measurement": "glucuronosyltransferase assay, RP-HPLC with fluorescence detection", "setting": "[2]", "result": "This result confirms that AtGlcAT14B and AtGlcAT14E have GlcAT activity"}, {"measurement": "glucuronosyltransferase assay, RP-HPLC fluorescence and LC-ESI-MS of products", "setting": "[3]", "result": "However, only UDP-GlcA was an active substrate donor"}]}
